Laboratory results taken from PubChem BioAssay AID248 (DTP/NCI, 2004).
Where “and” joins values, the source holds several entries; their conditions need not be identical. Equal entries are not always repeated. Inconclusive results and toxic doses are left out. Cut-off read from the data, not from the text of the source: active = T/C of 150% or more; inactive = T/C below 125%.

System: L1210 leukemia ip in BDF1 mice, survival T/C
Test: NCI In Vivo Anticancer Drug Screen. Data for tumor model L1210 Leukemia (intraperitoneal) in B6D2F1 (BDF1) mice
Settings: endpoint: mean survival time, higher = longer survival
Outline: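 Value reflects the ratio of survival in compound-treated mice to survival in vehicle-treated controls, with both groups carrying the same transplanted tumor.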

[1] = dose: 100.0 mg/kg/injection, schedule: Q01DX001 (ip), vehicle: saline
[2] = dose: 100.0 mg/kg/injection, schedule: Q01DX009 (ip), vehicle: saline
[3] = dose: 100.0 mg/kg/injection, schedule: Q04DX002 (ip), vehicle: saline
[4] = dose: 100.0 mg/kg/injection, schedule: Q04DX003 (ip), vehicle: saline
[5] = dose: 200.0 mg/kg/injection, schedule: Q01DX001 (ip), vehicle: saline
[6] = dose: 200.0 mg/kg/injection, schedule: Q01DX009 (ip), vehicle: saline
[7] = dose: 200.0 mg/kg/injection, schedule: Q04DX002 (ip), vehicle: saline
[8] = dose: 200.0 mg/kg/injection, schedule: Q04DX003 (ip), vehicle: saline
[9] = dose: 400.0 mg/kg/injection, schedule: Q01DX001 (ip), vehicle: saline
[10] = dose: 400.0 mg/kg/injection, schedule: Q01DX009 (ip), vehicle: saline
[11] = dose: 400.0 mg/kg/injection, schedule: Q04DX002 (ip), vehicle: saline
[12] = dose: 400.0 mg/kg/injection, schedule: Q04DX003 (ip), vehicle: saline
[13] = dose: 100.0 mg/kg/injection, schedule: Q04DX002 (ip), vehicle: saline with Tween-80
[14] = dose: 200.0 mg/kg/injection, schedule: Q04DX002 (ip), vehicle: saline with Tween-80
[15] = dose: 400.0 mg/kg/injection, schedule: Q04DX002 (ip), vehicle: saline with Tween-80

Measured: T/C

O=[N+]([O-])c1ccc(Cl)c2ncccc12
inactive: dose: 100.0 mg/kg/injection, schedule: Q04DX003 (ip), vehicle: Klucel (hydroxypropylcellulose) (HPC) 102 % of control | dose: 200.0 mg/kg/injection, schedule: Q04DX003 (ip), vehicle: Klucel (hydroxypropylcellulose) (HPC) 98 % of control | dose: 400.0 mg/kg/injection, schedule: Q04DX003 (ip), vehicle: Klucel (hydroxypropylcellulose) (HPC) 102 % of control

CCC(O)C(CC(C)N(C)C)(c1ccccc1)c1ccccc1 (stereo not drawn)
inactive: [1] 108 % of control

CN(C(=O)CCCc1ccc(N(CCCl)CCCl)cc1)c1ccccc1
inactive: dose: 2.0 mg/kg/injection, schedule: Q12HX018 (ip), vehicle: Klucel (hydroxypropylcellulose) (HPC) 100 % of control | dose: 4.0 mg/kg/injection, schedule: Q12HX018 (ip), vehicle: Klucel (hydroxypropylcellulose) (HPC) 96 % of control | dose: 8.0 mg/kg/injection, schedule: Q12HX018 (ip), vehicle: Klucel (hydroxypropylcellulose) (HPC) 107 % of control | dose: 8.0 mg/kg/injection, schedule: Q12HX018 (ip), vehicle: other 110 % of control | dose: 10.0 mg/kg/injection, schedule: Q12HX018 (ip), vehicle: other 101 % of control | dose: 12.0 mg/kg/injection, schedule: Q12HX018 (ip), vehicle: other 100 % of control

COC(=O)/C(=C1\C=C(c2ccccc2)C(=O)O1)c1ccccc1
inactive: dose: 25.0 mg/kg/injection, schedule: Q01DX009 (ip), vehicle: Klucel (hydroxypropylcellulose) (HPC) 98 % of control | dose: 50.0 mg/kg/injection, schedule: Q01DX009 (ip), vehicle: Klucel (hydroxypropylcellulose) (HPC) 103 % of control

N#CCCS(=O)(=O)O
inactive: [1] 100 % of control | [2] 98 % of control and 122 % of control | [3] 97 % of control | [4] 95 % of control | [5] 97 % of control | [6] 98 % of control and 108 % of control | [7] 106 % of control and 90 % of control | [8] 103 % of control | [9] 105 % of control | [10] 102 % of control and 108 % of control | [11] 87 % of control and 92 % of control | [12] 97 % of control

COc1ccc(/C=C2\N=C(c3ccc(Cl)cc3)OC2=O)cc1Br
inactive: [3] 101 % of control | [7] 93 % of control | [11] 108 % of control

O=c1[nH]nc(CCc2ccc([N+](=O)[O-])cc2)o1
inactive: [2] 93 % of control | [6] 94 % of control | [10] 104 % of control

CC1(C)OCC(C2OC3OC(C)(C)OC3C2O)O1 (stereo not drawn)
inactive: [1] 97 % of control | [5] 100 % of control | [9] 100 % of control

CCCCNC(c1ccccc1)=[N+]1CCCCC1
inactive: dose: 12.5 mg/kg/injection, schedule: Q04DX002 (ip), vehicle: saline 92 % of control | dose: 25.0 mg/kg/injection, schedule: Q04DX002 (ip), vehicle: saline 98 % of control

N#CCCN(Cc1cccnc1)CN1C(=O)c2ccccc2C1=O
inactive: [13] 91 % of control | [14] 97 % of control | [15] 102 % of control

CC(Cl)CN(Cc1cc(CN(CC(C)Cl)CC(C)Cl)c(O)cc1O)CC(C)Cl (stereo not drawn)
inactive: dose: 12.5 mg/kg/injection, schedule: Q01DX001 (sc), vehicle: olive oil, sesame oil, peanut oil 102 % of control | dose: 12.5 mg/kg/injection, schedule: Q01DX015 (sc), vehicle: olive oil, sesame oil, peanut oil 95 % of control | dose: 25.0 mg/kg/injection, schedule: Q01DX001 (sc), vehicle: olive oil, sesame oil, peanut oil 100 % of control | dose: 25.0 mg/kg/injection, schedule: Q01DX015 (sc), vehicle: olive oil, sesame oil, peanut oil 110 % of control | dose: 50.0 mg/kg/injection, schedule: Q01DX001 (ip), vehicle: carboxymethylcellulose (CMC) 93 % of control | dose: 50.0 mg/kg/injection, schedule: Q01DX001 (sc), vehicle: olive oil, sesame oil, peanut oil 96 % of control | dose: 50.0 mg/kg/injection, schedule: Q01DX015 (sc), vehicle: olive oil, sesame oil, peanut oil 93 % of control | dose: 100.0 mg/kg/injection, schedule: Q01DX001 (ip), vehicle: carboxymethylcellulose (CMC) 110 % of control | dose: 100.0 mg/kg/injection, schedule: Q01DX001 (sc), vehicle: olive oil, sesame oil, peanut oil 102 % of control | dose: 100.0 mg/kg/injection, schedule: Q01DX015 (sc), vehicle: olive oil, sesame oil, peanut oil 95 % of control | dose: 200.0 mg/kg/injection, schedule: Q01DX001 (ip), vehicle: carboxymethylcellulose (CMC) 110 % of control | dose: 200.0 mg/kg/injection, schedule: Q01DX015 (sc), vehicle: olive oil, sesame oil, peanut oil 112 % of control | dose: 400.0 mg/kg/injection, schedule: Q01DX001 (ip), vehicle: carboxymethylcellulose (CMC) 104 % of control | dose: 400.0 mg/kg/injection, schedule: Q01DX015 (sc), vehicle: olive oil, sesame oil, peanut oil 104 % of control | dose: 600.0 mg/kg/injection, schedule: Q01DX015 (sc), vehicle: olive oil, sesame oil, peanut oil 102 % of control

c1ccc(Nc2ccc(C(c3ccccc3)(c3ccccc3)c3ccccc3)cc2)cc1
inactive: dose: 25.6 mg/kg/injection, schedule: Q04DX002 (ip), vehicle: saline with Tween-80 97 % of control | dose: 64.0 mg/kg/injection, schedule: Q04DX002 (ip), vehicle: saline with Tween-80 94 % of control | dose: 160.0 mg/kg/injection, schedule: Q04DX002 (ip), vehicle: saline with Tween-80 97 % of control | [15] 91 % of control

O=c1[nH]cc(C(F)(F)F)c(=O)[nH]1
inactive: dose: 4.0 mg/kg/injection, schedule: Q01DX Z (oral), vehicle: methylcellulose (MC) 106 % of control | dose: 8.0 mg/kg/injection, schedule: Q01DX Z (oral), vehicle: methylcellulose (MC) 102 % of control | dose: 12.0 mg/kg/injection, schedule: Q01DX Z (oral), vehicle: methylcellulose (MC) 103 % of control and 91 % of control | dose: 16.0 mg/kg/injection, schedule: Q01DX Z (oral), vehicle: methylcellulose (MC) 90 % of control | dose: 50.0 mg/kg/injection, schedule: Q01DX Z (ip), vehicle: saline 103 % of control | dose: 100.0 mg/kg/injection, schedule: Q01DX Z (ip), vehicle: saline 107 % of control | dose: 200.0 mg/kg/injection, schedule: Q01DX Z (ip), vehicle: saline 116 % of control and 123 % of control | dose: 300.0 mg/kg/injection, schedule: Q01DX Z (ip), vehicle: saline 124 % of control | dose: 400.0 mg/kg/injection, schedule: Q01DX Z (ip), vehicle: saline 98 % of control | dose: 500.0 mg/kg/injection, schedule: Q01DX Z (ip), vehicle: saline 117 % of control | dose: 500.0 mg/kg/injection, schedule: Q01DX Z (oral), vehicle: methylcellulose (MC) 111 % of control | dose: 1000.0 mg/kg/injection, schedule: Q01DX Z (oral), vehicle: methylcellulose (MC) 93 % of control | dose: 1500.0 mg/kg/injection, schedule: Q01DX Z (oral), vehicle: methylcellulose (MC) 94 % of control | dose: 2000.0 mg/kg/injection, schedule: Q01DX Z (oral), vehicle: methylcellulose (MC) 88 % of control

Oc1ccccc1/C=N\Nc1ccccc1
inactive: [4] 100 % of control | [8] 95 % of control | [12] 103 % of control

CC1Oc2ccccc2OC1CN1CCC2(CC1)C(=O)N(C)CN2c1ccccc1 (stereo not drawn)
inactive: dose: 100.0 mg/kg/injection, schedule: Q01DX001 (ip), vehicle: Klucel (hydroxypropylcellulose) (HPC) 88 % of control | dose: 200.0 mg/kg/injection, schedule: Q01DX001 (ip), vehicle: Klucel (hydroxypropylcellulose) (HPC) 99 % of control | dose: 400.0 mg/kg/injection, schedule: Q01DX001 (ip), vehicle: Klucel (hydroxypropylcellulose) (HPC) 86 % of control

Nc1ccc2nc3c4ccccc4c(O)n3nc2c1
inactive: [13] 106 % of control | [14] 102 % of control | [15] 102 % of control

CCN(C(=O)c1cccc(C(=O)N(CC)c2cccc(C)c2)c1)c1cccc(C)c1
inactive: dose: 100.0 mg/kg/injection, schedule: Q04DX002 (ip), vehicle: Klucel (hydroxypropylcellulose) (HPC) 94 % of control | dose: 200.0 mg/kg/injection, schedule: Q04DX002 (ip), vehicle: Klucel (hydroxypropylcellulose) (HPC) 91 % of control | dose: 400.0 mg/kg/injection, schedule: Q04DX002 (ip), vehicle: Klucel (hydroxypropylcellulose) (HPC) 91 % of control
